In brackets after ≈: the same amount, converted by molar mass. Where two headings read alike, the source gives them in different places.
Legend:
[1] = biological target: fungal (fACC2) (UniProt Q00955); conditions: read-out: fACC2 (in vitro ACC2 Inhibition Assay, IC50); Table 2b, additional results; ADP-Glo, 5 nM ACC2, 20 μM ATP, 20 μM acetyl-CoA
[2] = test system: Phytophthora capsici (Pc); assay: Growth inhibition assay of fungal pathogens, Pc; format: cell-based; conditions: 48 h
In short: (§1)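 Pathogen growth in 17% V8 broth is measured by OD600 at 24 and 48 hours, after blank subtraction, in the presence of compound at 50, 10 and 2 ppm or 2, 0.4 and 0.08 ppm. Inhibition in percent comes from 48-hour readings against the DMSO control.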

[3] = test system: Collectotrichum graminicola (Cg); assay: Growth inhibition assay of fungal pathogens, Cg; format: cell-based; conditions: growth inhibition at 48 hours vs 2% DMSO control; for IC90: 48 h
In short: as §1

[4] = test system: Fusarium virguliforme (Fv); assay: Growth inhibition assay of fungal pathogens, Fv; format: cell-based; conditions: for IC90: 48 h
In short: as §1

[5] = test system: Fusarium moniliforme (Fm); assay: Growth inhibition assay of fungal pathogens, Fm; format: cell-based; conditions: for IC90: Fusarium verticillioides, 48 h, read-out: Concentration at 90% Inhibition Fm
In short: as §1

[6] = test system: Botrtyis cinerea (Bc); assay: Growth inhibition assay of fungal pathogens, Bc; format: cell-based; conditions: growth inhibition at 48 hours vs 2% DMSO control; for IC90: 48 h
In short: as §1

[7] = test system: C. parapsilosis; assay: Antifungal Activity Assay (broth microtiter MIC), C. parapsilosis; format: cell-based, Candida parapsilosis; conditions: Lodderomyces parapsilosis, ATCC22019, 48 h
In short: (§2)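 CLSI M27-A3 broth microdilution in RPMI 1640+MOPS, final inoculum 2.5×10^3 CFU/mL from overnight Sabouraud cultures grown at 35 °C. MIC read visually at 48 h against growth control.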

[8] = biological target: human (hACC2) (Homo sapiens, UniProt O00763); assay: In vitro ACC inhibition assay (ADP-Glo), hACC2; format: biochemical; conditions: Table 2b, additional results, 5 nM ACC2, 20 μM ATP, 20 μM acetyl-CoA
human (hACC2), sequence (O00763 whole entry): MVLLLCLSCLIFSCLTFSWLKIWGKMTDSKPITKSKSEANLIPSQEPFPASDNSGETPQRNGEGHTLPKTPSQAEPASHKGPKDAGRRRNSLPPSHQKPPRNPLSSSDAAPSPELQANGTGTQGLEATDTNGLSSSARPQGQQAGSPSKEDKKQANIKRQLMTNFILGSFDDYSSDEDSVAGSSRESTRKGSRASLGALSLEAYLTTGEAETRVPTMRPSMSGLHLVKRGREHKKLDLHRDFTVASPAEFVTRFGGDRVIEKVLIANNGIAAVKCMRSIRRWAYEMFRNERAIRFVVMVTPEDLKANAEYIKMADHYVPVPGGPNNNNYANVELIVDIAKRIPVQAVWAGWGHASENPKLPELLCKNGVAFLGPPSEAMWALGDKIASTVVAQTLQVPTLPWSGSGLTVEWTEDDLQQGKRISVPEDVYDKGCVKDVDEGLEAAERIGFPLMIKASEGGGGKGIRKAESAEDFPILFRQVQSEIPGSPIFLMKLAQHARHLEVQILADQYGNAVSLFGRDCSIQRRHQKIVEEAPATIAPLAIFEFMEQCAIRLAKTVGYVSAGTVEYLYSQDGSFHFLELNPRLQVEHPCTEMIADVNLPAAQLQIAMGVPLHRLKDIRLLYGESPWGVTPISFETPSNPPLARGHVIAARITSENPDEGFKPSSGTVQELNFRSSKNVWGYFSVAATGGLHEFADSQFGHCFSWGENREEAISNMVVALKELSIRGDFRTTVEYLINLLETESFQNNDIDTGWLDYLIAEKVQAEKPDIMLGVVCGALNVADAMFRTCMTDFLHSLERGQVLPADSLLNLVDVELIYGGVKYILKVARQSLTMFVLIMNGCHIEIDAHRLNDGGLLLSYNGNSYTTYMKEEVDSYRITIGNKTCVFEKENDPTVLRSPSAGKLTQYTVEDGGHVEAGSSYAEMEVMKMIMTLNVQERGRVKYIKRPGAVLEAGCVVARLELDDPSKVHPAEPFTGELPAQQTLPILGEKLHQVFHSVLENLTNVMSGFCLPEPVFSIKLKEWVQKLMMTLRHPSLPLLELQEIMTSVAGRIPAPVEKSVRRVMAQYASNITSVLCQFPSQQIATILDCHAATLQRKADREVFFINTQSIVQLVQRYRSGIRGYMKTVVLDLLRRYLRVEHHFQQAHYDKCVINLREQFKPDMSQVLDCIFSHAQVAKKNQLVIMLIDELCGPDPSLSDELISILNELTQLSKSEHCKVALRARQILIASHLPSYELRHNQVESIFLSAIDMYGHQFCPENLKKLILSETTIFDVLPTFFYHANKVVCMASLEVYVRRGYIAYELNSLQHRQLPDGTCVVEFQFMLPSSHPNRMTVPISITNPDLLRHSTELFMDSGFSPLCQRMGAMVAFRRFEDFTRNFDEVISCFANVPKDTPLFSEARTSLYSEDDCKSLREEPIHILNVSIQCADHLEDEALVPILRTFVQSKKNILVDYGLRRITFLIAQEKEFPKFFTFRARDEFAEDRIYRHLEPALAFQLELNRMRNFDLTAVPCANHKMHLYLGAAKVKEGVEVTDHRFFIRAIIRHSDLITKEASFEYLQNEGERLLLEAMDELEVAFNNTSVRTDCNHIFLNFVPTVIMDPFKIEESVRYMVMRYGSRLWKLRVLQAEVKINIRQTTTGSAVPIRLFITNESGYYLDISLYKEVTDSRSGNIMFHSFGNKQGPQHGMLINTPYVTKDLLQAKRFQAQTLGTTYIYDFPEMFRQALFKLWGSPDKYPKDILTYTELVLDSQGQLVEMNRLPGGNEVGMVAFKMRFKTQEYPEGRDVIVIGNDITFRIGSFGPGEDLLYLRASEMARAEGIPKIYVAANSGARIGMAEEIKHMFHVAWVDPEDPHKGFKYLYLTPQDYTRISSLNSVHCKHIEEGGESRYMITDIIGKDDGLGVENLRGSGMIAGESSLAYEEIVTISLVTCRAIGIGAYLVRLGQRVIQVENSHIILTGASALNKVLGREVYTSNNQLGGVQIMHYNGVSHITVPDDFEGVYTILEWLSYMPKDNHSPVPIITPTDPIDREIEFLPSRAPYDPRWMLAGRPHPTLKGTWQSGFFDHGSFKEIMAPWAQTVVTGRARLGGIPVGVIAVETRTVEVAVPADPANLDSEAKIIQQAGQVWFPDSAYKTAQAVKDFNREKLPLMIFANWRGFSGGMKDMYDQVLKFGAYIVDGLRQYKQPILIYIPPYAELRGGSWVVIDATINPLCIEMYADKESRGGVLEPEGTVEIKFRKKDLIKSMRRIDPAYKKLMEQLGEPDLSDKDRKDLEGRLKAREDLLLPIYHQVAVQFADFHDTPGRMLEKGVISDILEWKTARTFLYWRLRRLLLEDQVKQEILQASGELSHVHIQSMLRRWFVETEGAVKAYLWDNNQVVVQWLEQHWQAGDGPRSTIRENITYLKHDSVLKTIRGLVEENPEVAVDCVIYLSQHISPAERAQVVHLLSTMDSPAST
Protocol: The detailed procedure is as follows. […] 10 μL ADP glo reagent was added. […] 20 μL kinase detection reagent was added.

[9] = test system: C. krusei; assay: Antifungal Activity Assay (broth microtiter MIC), C. krusei; format: cell-based, Candida krusei; conditions: Pichia kudriavzevii, ATCC6258, 48 h
In short: as §2

[10] = test system: Septoria tritici (St); assay: Growth inhibition assay of fungal pathogens, St; format: cell-based; conditions: Zymoseptoria tritici, 48 h, growth inhibition at 48 hours vs 2% DMSO control
In short: as §1

[11] = test system: Diplodia maydis (Dm); assay: Growth inhibition assay of fungal pathogens, Dm; format: cell-based; conditions: Stenocarpella maydis, 48 h, growth inhibition at 48 hours vs 2% DMSO control
In short: as §1

[12] = test system: Rhizoctonia solani (Rs); assay: Growth inhibition assay of fungal pathogens, Rs; format: cell-based; conditions: 48 h
[13] = test system: C. albicans; assay: Antifungal Activity Assay (broth microtiter MIC), C. albicans; format: cell-based, Candida albicans; conditions: Candida albicans, ATCC90028, 48 h
In short: as §2

[14] = read-out: Concentration at 90% Inhibition Pc, Phytophthora capsici, growth inhibition at 48 hours vs 2% DMSO control
[15] = read-out: Concentration at 90% Inhibition Cg, Collectotrichum graminicola
[16] = read-out: Concentration at 90% Inhibition Fv, Fusarium virguliforme, growth inhibition at 48 hours vs 2% DMSO control
[17] = read-out: Concentration at 90% Inhibition Bc, Botrtyis cinerea
[18] = read-out: MIC, C. parapsilosis ATCC 22019, Table 3b (additional results), 3 replicates, MIC recorded at 48 h
[19] = read-out: MIC, C. krusei ATCC 6258, Table 3b (additional results), 3 replicates, MIC recorded at 48 h
[20] = read-out: Concentration at 90% Inhibition St, Septoria tritici
[21] = read-out: Concentration at 90% Inhibition Dm, Diplodia maydis
[22] = read-out: Concentration at 90% Inhibition Rs, Rhizoctonia solani, mycelial plugs, growth inhibition at 48 hours vs 2% DMSO control
[23] = read-out: MIC, C. albicans ATCC 90028, Table 3b (additional results), 3 replicates, MIC recorded at 48 h
[24] = growth inhibition at 48 hours vs 2% DMSO control, read-out: Concentration at 90% Inhibition Pc
[25] = Collectotrichum graminicola, read-out: Concentration at 90% Inhibition Cg
[26] = growth inhibition at 48 hours vs 2% DMSO control, read-out: Concentration at 90% Inhibition Fv
[27] = Fusarium moniliforme, growth inhibition at 48 hours vs 2% DMSO control
[28] = Botrtyis cinerea, read-out: Concentration at 90% Inhibition Bc
[29] = Table 3b (additional results), ATCC 22019, 3 replicates, MIC recorded at 48 h, read-out: MIC, C. parapsilosis ATCC 22019
[30] = Table 3b (additional results), ATCC 6258, 3 replicates, MIC recorded at 48 h, read-out: MIC, C. krusei ATCC 6258
[31] = Septoria tritici, read-out: Concentration at 90% Inhibition St
[32] = Diplodia maydis, read-out: Concentration at 90% Inhibition Dm
[33] = mycelial plugs, growth inhibition at 48 hours vs 2% DMSO control, read-out: Concentration at 90% Inhibition Rs
[34] = Table 3b (additional results), ATCC 90028, 3 replicates, MIC recorded at 48 h, read-out: MIC, C. albicans ATCC 90028

fungal (fACC2), sequence (Q00955 whole entry): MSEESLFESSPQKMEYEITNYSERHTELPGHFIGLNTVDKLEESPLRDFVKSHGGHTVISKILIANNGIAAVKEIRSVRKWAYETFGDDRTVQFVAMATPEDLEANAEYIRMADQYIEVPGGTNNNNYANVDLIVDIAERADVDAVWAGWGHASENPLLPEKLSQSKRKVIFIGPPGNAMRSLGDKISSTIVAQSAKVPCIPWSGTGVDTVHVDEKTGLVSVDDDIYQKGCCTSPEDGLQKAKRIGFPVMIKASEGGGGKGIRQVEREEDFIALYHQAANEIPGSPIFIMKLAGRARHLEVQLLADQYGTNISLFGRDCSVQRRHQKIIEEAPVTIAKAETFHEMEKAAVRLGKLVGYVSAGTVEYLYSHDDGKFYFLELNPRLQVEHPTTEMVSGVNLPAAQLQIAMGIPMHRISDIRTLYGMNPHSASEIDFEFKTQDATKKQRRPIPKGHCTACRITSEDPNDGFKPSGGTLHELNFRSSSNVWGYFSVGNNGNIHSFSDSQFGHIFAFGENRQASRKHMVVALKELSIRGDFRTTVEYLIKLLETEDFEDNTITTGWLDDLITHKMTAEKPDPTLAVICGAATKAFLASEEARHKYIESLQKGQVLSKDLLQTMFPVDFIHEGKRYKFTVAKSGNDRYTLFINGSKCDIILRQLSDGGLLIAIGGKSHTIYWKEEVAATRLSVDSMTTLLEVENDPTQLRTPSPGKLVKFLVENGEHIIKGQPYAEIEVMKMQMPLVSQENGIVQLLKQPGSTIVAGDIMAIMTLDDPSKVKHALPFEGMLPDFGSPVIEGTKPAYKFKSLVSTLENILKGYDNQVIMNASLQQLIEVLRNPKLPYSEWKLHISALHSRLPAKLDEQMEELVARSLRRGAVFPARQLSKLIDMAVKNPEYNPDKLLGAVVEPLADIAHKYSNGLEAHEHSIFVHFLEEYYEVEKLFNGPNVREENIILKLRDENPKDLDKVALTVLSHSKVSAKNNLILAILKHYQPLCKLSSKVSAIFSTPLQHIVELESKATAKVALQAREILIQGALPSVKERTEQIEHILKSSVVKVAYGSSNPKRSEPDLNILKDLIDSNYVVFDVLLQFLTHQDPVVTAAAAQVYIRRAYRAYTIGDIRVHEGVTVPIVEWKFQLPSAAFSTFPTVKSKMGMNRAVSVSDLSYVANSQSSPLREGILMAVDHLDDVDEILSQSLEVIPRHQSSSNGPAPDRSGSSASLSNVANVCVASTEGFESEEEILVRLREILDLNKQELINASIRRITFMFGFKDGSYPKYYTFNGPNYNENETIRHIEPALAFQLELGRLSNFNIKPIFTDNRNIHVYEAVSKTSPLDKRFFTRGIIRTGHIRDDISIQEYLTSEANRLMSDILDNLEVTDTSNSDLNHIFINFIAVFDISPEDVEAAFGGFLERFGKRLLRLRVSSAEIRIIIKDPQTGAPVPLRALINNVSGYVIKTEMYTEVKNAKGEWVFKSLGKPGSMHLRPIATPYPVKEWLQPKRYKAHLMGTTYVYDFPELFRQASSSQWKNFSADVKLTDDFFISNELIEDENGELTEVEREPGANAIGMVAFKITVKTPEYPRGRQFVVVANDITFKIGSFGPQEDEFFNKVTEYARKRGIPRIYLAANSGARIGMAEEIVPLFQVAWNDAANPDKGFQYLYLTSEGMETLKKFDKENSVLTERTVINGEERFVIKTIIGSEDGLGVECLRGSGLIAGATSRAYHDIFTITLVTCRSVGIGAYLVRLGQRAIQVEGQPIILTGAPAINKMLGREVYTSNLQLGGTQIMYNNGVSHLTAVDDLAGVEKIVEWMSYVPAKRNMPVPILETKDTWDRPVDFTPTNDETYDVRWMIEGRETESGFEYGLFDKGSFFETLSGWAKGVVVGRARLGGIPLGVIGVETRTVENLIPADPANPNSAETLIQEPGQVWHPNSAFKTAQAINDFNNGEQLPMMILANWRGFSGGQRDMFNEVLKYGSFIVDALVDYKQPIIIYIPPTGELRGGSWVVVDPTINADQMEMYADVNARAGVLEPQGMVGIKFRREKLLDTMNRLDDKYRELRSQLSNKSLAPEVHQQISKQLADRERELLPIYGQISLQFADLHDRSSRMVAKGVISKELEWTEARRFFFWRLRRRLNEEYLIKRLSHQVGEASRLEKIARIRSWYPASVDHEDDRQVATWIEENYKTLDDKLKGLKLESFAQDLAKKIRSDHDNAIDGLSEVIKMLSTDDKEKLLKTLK

Compound	IC50 [1]	IC50 [8]	IC90 [2, 24]	IC90 [3, 25]	IC90 [4, 26]	IC90 [5, 27]	IC90 [6, 28]	MIC [7, 29]	MIC [9, 30]	IC90 [10, 31]	IC90 [11, 32]	IC90 [12, 33]	MIC [13, 34]	also measured
COc1ccccc1[C@@H](O)Cn1c(=O)n(C(C)(C)C(=O)NC(C)C)c(=O)c2c(C)c(-n3nccn3)sc21 [Compound I-256]	1 to 5 nM	5 to 10 nM												IC90 [2, 14]: 10 µg/mL (≈ 19 µM); IC90 [3, 15]: 2 µg/mL (≈ 3.8 µM); IC90 [4, 16]: 0.08 µg/mL (≈ 0.152 µM); IC90 [5]: 0.08 µg/mL (≈ 0.152 µM); IC90 [6, 17]: 0.4 µg/mL (≈ 0.76 µM); MIC [7, 18]: 0.25 to 1 µg/mL (≈ 0.475 to 1.9 µM); MIC [9, 19]: 0.25 to 1 µg/mL (≈ 0.475 to 1.9 µM); IC90 [10, 20]: > 50 µg/mL; IC90 [11, 21]: 2 µg/mL (≈ 3.8 µM); IC90 [12, 22]: 0.08 µg/mL (≈ 0.152 µM); MIC [13, 23]: 1.01 to 2 µg/mL (≈ 1.92 to 3.8 µM)
CCNC(=O)C(C)(C)n1c(=O)c2c(C)c(-n3nccn3)sc2n(C[C@H](OC(C)=O)c2cc(F)ccc2OC)c1=O [Compound I-257]	5 to 10 nM	> 40 nM	> 50 µg/mL	> 50 µg/mL	> 50 µg/mL	10 µg/mL (≈ 17.5 µM)	> 50 µg/mL	2.01 to 4 µg/mL (≈ 3.51 to 6.99 µM)	1.01 to 2 µg/mL (≈ 1.76 to 3.49 µM)	> 50 µg/mL	> 50 µg/mL	> 50 µg/mL	2.01 to 4 µg/mL (≈ 3.51 to 6.99 µM)	
COc1ccc(F)cc1[C@H](Cn1c(=O)n(C(C)(C)C(=O)NC(C)C)c(=O)c2c(C)c(-n3nccn3)sc21)OC(C)=O [Compound I-258]	5 to 10 nM	> 40 nM	> 50 µg/mL	> 50 µg/mL	10 µg/mL (≈ 17 µM)	10 µg/mL (≈ 17 µM)	10 µg/mL (≈ 17 µM)	1.01 to 2 µg/mL (≈ 1.72 to 3.41 µM)	0.25 to 1 µg/mL (≈ 0.426 to 1.7 µM)	> 50 µg/mL	> 50 µg/mL	> 50 µg/mL	0.25 to 1 µg/mL (≈ 0.426 to 1.7 µM)	
CCNC(=O)C(C)(C)n1c(=O)c2c(C)c(-n3nccn3)sc2n(C[C@@H](OC(C)=O)c2cc(F)ccc2OC)c1=O [Compound I-260]	0.3 to 1 nM	10 to 40 nM	> 50 µg/mL	10 µg/mL (≈ 17.5 µM)	2 µg/mL (≈ 3.49 µM)	0.4 µg/mL (≈ 0.699 µM)	2 µg/mL (≈ 3.49 µM)	2.01 to 4 µg/mL (≈ 3.51 to 6.99 µM)	1.01 to 2 µg/mL (≈ 1.76 to 3.49 µM)	> 50 µg/mL	10 µg/mL (≈ 17.5 µM)	2 µg/mL (≈ 3.49 µM)	2.01 to 4 µg/mL (≈ 3.51 to 6.99 µM)	
COc1ccc(F)cc1[C@H](Cn1c(=O)n(C(C)(C)C(=O)NC(C)C)c(=O)c2c(C)c(-n3nccn3)sc21)OC(=O)CO [Compound I-262]	5 to 10 nM	> 40 nM	> 50 µg/mL	> 50 µg/mL	10 µg/mL (≈ 16.6 µM)	10 µg/mL (≈ 16.6 µM)	> 50 µg/mL	1.01 to 2 µg/mL (≈ 1.68 to 3.32 µM)	0.06 to 0.249 µg/mL (≈ 0.0996 to 0.413 µM)	> 50 µg/mL	> 50 µg/mL	> 50 µg/mL	0.25 to 1 µg/mL (≈ 0.415 to 1.66 µM)	
COc1ccc(F)cc1CCn1c(=O)n(C(C)(C)C(=O)NC(C)C)c(=O)c2c(C)c(-n3nccn3)sc21 [Compound I-266]	1 to 5 nM	5 to 10 nM	> 50 µg/mL					1.01 to 2 µg/mL (≈ 1.91 to 3.78 µM)	0.25 to 1 µg/mL (≈ 0.473 to 1.89 µM)	> 50 µg/mL	10 µg/mL (≈ 18.9 µM)	2 µg/mL (≈ 3.78 µM)	1.01 to 2 µg/mL (≈ 1.91 to 3.78 µM)	Concentration at 90% Inhibition Cg ([3]; Collectotrichum graminicola): B (compound concentration of 2.0 ppm at 90% inhibition of fungal pathogens); Concentration at 90% Inhibition Fv ([4]; growth inhibition at 48 hours vs 2% DMSO control): B (compound concentration of 2.0 ppm at 90% inhibition of fungal pathogens); Concentration at 90% Inhibition Fm [5, 27]: B (compound concentration of 2.0 ppm at 90% inhibition of fungal pathogens); Concentration at 90% Inhibition Bc ([6]; Botrtyis cinerea): B (compound concentration of 2.0 ppm at 90% inhibition of fungal pathogens)
COc1ccc(F)cc1[C@@H](CCCO)Cn1c(=O)n(C(C)(C)C(=O)NC(C)C)c(=O)c2c(C)c(-n3nccn3)sc21 [Compound I-267]	1 to 5 nM	> 40 nM												IC90 [2, 14]: > 50 µg/mL; IC90 [3, 15]: > 50 µg/mL; IC90 [4, 16]: 10 µg/mL (≈ 17 µM); IC90 [5]: 2 µg/mL (≈ 3.41 µM); IC90 [6, 17]: > 50 µg/mL; MIC [7, 18]: 0.25 to 1 µg/mL (≈ 0.426 to 1.7 µM); MIC [9, 19]: 0.06 to 0.249 µg/mL (≈ 0.102 to 0.424 µM); IC90 [10, 20]: > 50 µg/mL; IC90 [11, 21]: > 50 µg/mL; IC90 [12, 22]: > 50 µg/mL; MIC [13, 23]: 0.25 to 1 µg/mL (≈ 0.426 to 1.7 µM)
